{"source": "patent US20230054887A1", "about": "“SWEETENING AND TASTE-MASKING COMPOSITIONS, PRODUCTS AND USES THEREOF” (HEALTHTECH BIO ACTIVES, S.L.U., priority 2017, published 2023)", "assay_type_in_all_cases": "in vivo", "key": {"[1]": {"test": "Masking bitterness of paracetamol, calibrated test panel, equibitter solution", "conditions": "for Masking effect (real): 5000 ppm paracetamol", "description": "The bitter masking effect against paracetamol was assayed. The anti-bittering effect was measured as a dose-response profile vs. a solution of paracetamol.\nThe following substances were assayed: NHDC alone, gamma-cyclodextrin alone and compositions comprising NHDC and gamma-cyclodextrin in a molar ratio 1:3 (Example B), 1.5:1 (Example C), 1:6 (Example D) and 1:10 (Example E).\nFor evaluating the masking effect of each substance, several aqueous solutions were prepared, each containing 5000 ppm of paracetamol and different concentrations of the tested substance, namely, 5, 25, 50, 75 and 100 ppm.\nA calibrated test panel compared each solution with several solutions of paracetamol in water at different concentrations, and determined the equibitter paracetamol solution. The equibitter solution was calculated as the average of all the evaluations of the panel.\nThe masking effect was then calculated from the reference amount of paracetamol contained in each tested solution (5000 ppm) and the amount of paracetamol in the equibitter solution, using the following formula (Formula III): […]\nFor calculating the masking synergies between gamma-cyclodextrin and NHDC, first, for each amount of the combination (Examples A-E), using the molecular weight of each component, the amounts of gamma-cyclodextrin and NHDC contained therein were calculated. For example, 100 ppm of Example B contain 13.61 ppm of NHDC and 86.39 ppm of gamma-cyclodextrin. Then, the antibittering contribution of each component in the composition was calculated, on the basis of the data of Table 13. For example, 13.61 ppm of NHDC provide 9.44% masking effect and 86.39 ppm of gamma-cyclodextrin provide 5.46% masking effect (the antibittering effects for each specific concentration was calculated by interpolation of the data points in Table 13). Therefore, the expected masking effect is calculated as the sum of the contributions of each component. For example, the expected masking effect of 100 ppm of Example B is 14.90 (i.e., 9.44 plus 5.46).\nFinally, the masking synergy is calculated using Formula IV: […]\nThe masking effect of Examples C (NHDC:gCD 1.5:1), D (NHDC:gCD 1:6) and E (NHDC:gCD 1:10) was also evaluated. Aqueous solutions were prepared, each one of them containing 5000 ppm of paracetamol and different concentrations of each one of the tested formulations Ex. C-E, namely, 25 and 50 ppm. Results are disclosed in Tables 15 to 17."}, "[2]": {"test": "Taste profile by calibrated taste panel at concentrations equisweet to 3% sucrose", "conditions": "0- to 5-point scale", "description": "The overall taste profile achieved with the sweetening composition of the present invention was evaluated and compared with the target taste profile of sucrose.\nFor this assay, all samples were evaluated at the same sweetness level, so each sample was used at a concentration which was equisweet to 3% sucrose. For each sample, the following parameters were evaluated: • Time to first sweetness detection • Time to maximum sweetness • Lingering (time for the sweetness to disappear) • Off-flavour: menthol, liquorice (any tastes that are different from sweetness) • Mouthfeel (density, i.e., the perceived viscosity in the mouth)\nThese evaluations were carried out by a calibrated taste panel, and conducted at room temperature.\nEach of those parameters was evaluated on a 0- to 5-point scale. The values for sucrose were the reference, and were considered the target to emulate."}, "[3]": {"test": "Masking bitterness of quinine, test panel, equibitter solution", "conditions": "250 ppm quinine", "description": "The bitter masking effect against quinine was assayed, following an analogous procedure to the one used in Example 10 for paracetamol.\nThe following substances were assayed: NHDC alone, beta-cyclodextrin alone, a composition comprising NHDC and beta-cyclodextrin in a molar ratio 1:1 (Example F) and a composition comprising NHDC and beta-cyclodextrin in a molar ratio 1:3 (Example G).\nAnalogously to Example 10, several aqueous solutions were prepared, each containing 250 ppm of quinine and different concentrations of the tested substance, namely, 5, 25, 50, 75 and 100 ppm. For each tested solution, a test panel determined the equibitter quinine solution, and the masking effect was calculated using a formula analogous to formula III (substituting 5000 with […]).\nThe masking synergies between beta-cyclodextrin and NHDC in Examples F and G were calculated following an analogous procedure to the one disclosed in Example 10. Therefore, using the molecular weight of each component, the amounts of beta-cyclodextrin and NHDC contained in each amount of the combinations of Examples F and G were calculated and, then, the antibittering contribution of each component was calculated on the basis of the data of Table 19. The expected masking effect was calculated as the sum of the contributions of each component, and, finally, the masking synergy was calculated (using Formula IV)."}}, "data": [{"smiles": "COc1ccc(CCC(=O)c2c(O)cc(O[C@@H]3O[C@H](CO)[C@@H](O)[C@H](O)[C@H]3O[C@@H]3O[C@@H](C)[C@H](O)[C@@H](O)[C@H]3O)cc2O)cc1O", "note": "[NHDC, 1-[4-[[2-O-(6-Deoxy-α-L-mannopyranosyl)-β-D-glucopyranosyl]oxy]-2,6-dihydroxyphenyl]-3-(3-hydroxy-4-methoxyphenyl)propan-1-one]", "values": [{"measurement": "Equibitter paracetamol solution", "setting": "[1]; 5000 ppm paracetamol + 100 ppm tested substance", "result": 3266.7, "unit": "ppm"}, {"measurement": "Masking effect (real)", "setting": "[1]; tested substance 5 ppm", "result": 6.00, "unit": "%"}, {"measurement": "Masking effect (real)", "setting": "[1]; tested substance 25 ppm", "result": 14.00, "unit": "%"}, {"measurement": "Masking effect (real)", "setting": "[1]; tested substance 50 ppm", "result": 15.33, "unit": "%"}, {"measurement": "Masking effect (real)", "setting": "[1]; tested substance 75 ppm", "result": 27.00, "unit": "%"}, {"measurement": "Masking effect (real)", "setting": "[1]; tested substance 100 ppm", "result": 34.67, "unit": "%"}, {"measurement": "Lingering", "setting": "[2]", "result": 4.00}, {"measurement": "Mouthfeel (density)", "setting": "[2]", "result": 1.75}, {"measurement": "Off-flavour: menthol, licorice", "setting": "[2]", "result": 3.25}, {"measurement": "Time to first sweetness", "setting": "[2]", "result": 3.75}, {"measurement": "Time to maximum sweetness", "setting": "[2]", "result": 4.25}, {"measurement": "Total sweetness", "setting": "[2]", "result": 5.00}, {"measurement": "Masking effect (real)", "setting": "[3]; tested substance 5 ppm", "result": 5.00, "unit": "%"}, {"measurement": "Masking effect (real)", "setting": "[3]; tested substance 25 ppm", "result": 13.33, "unit": "%"}, {"measurement": "Masking effect (real)", "setting": "[3]; tested substance 50 ppm", "result": 30.00, "unit": "%"}, {"measurement": "Masking effect (real)", "setting": "[3]; tested substance 75 ppm", "result": 48.33, "unit": "%"}, {"measurement": "Masking effect (real)", "setting": "[3]; tested substance 100 ppm", "result": 50.00, "unit": "%"}]}]}
